Reference: patent US20120058499A1, “Bioluminescent Detection of Protease Activity” (priority 2010, published 2012)

Experiments:
USP2core = molecular target: T1, USP2core (Homo sapiens, UniProt O75604); experiment: Isopeptidase cleavage of substrates (DUB-Glo luminescence / fluorescence), S/B; assay type: biochemical; settings: USP2core 0.5 nM
T1 construct: USP2core (the common catalytic core domain of the two isoforms of USP2, USP2a and USP2b)
T1 sequence (O75604 267-599 limits assumed): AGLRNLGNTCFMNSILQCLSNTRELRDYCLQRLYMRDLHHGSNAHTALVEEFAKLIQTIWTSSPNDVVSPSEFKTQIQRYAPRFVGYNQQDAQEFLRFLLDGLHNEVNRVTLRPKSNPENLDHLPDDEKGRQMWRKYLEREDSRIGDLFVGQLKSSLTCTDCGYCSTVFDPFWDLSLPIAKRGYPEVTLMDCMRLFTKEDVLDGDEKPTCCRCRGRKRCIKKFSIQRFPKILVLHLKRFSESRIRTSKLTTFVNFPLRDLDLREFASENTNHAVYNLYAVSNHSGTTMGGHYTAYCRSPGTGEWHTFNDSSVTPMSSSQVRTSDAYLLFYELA
Experimental: The Ub-amino-luciferin substrate was compared to the Z-Arg-Leu-Arg-Gly-Gly (SEQ ID NO: 1)-amino-luciferin substrate (Promega DUB-Glo™ substrate) to determine the limit of detection of the activities of four different isopeptidases (UCHL3, USP2core, USP7, and USP8). For all enzymes, these two substrates were tested in parallel using the DUB-Glo™ assay system (Promega) according to the manufacturer's instructions. All enzymes were diluted into 50 mM HEPES, pH 7.5, 10 mM DTT, 0.1% Prionex (Sigma-Aldrich). For testing Z-Arg-Leu-Arg-Gly-Gly (SEQ ID NO: 1)-amino-luciferin, final isopeptidase concentrations were as follows: UCHL3 equal to approximately 0.35 to 50 nM; USP2core equal to approximately 10 to 500 nM, USP7 equal to approximately 0.1 to 50 nM, and USP8 equal to approximately 20 to 500 nM. For testing Ub-amino-luciferin, final isopeptidase concentrations were as follows: UCHL3 equal to approximately 0.05 to 50 pM; USP2core, USP7, and USP8 equal to approximately 0.5 to 500 pM. Reactions were assembled through addition of 50 μl of diluted enzyme and 50 μl of DUB-Glo™ reaction mixture supplemented with either Z-Arg-Leu-Arg-Gly-Gly (SEQ ID NO: 1)-amino-luciferin (final concentration of 20 μM) or Ub-amino-luciferin (final concentration of 100 nM). The signal in relative luminescence units (RLUs) was measured at 30 minutes from reaction assembly on an Envision multi-label plate reader (Perkin Elmer). The signal to background ratio (S/B) was calculated as (maximum signal−signal in absence of enzyme)/(signal in absence of enzyme).
The Ub-amino-luciferin (Ub-LUC) substrate was compared to the Ub-AMC substrate (FIG. 3) and the Ub-Rhodamine110 (Ub-Rho) substrate (FIG. 4), to determine the limit of detection for the activities of four different isopeptidases (UCHL3, USP2core, USP7, and USP8). All enzymes were diluted into 50 mM Tris, pH 8.0, 5 mM DTT, 0.05% (w/v) CHAPS. Final isopeptidase concentrations were as follows: UCHL3 equal to approximately 2 pM to 40 pM; USP2core, USP7, and USP8 were equal to approximately 10 to 1000 nM. Either Ub-AMC or Ub-Rhodamine110 (final concentration equal to 250 nM) were diluted into 50 mM Tris, pH 8.0, 5 mM DTT, 0.05% (w/v) CHAPS. Reactions were assembled through the addition of 50 μl diluted isopeptidase to 50 μl of either Ub-AMC or Ub-Rhodamine110, and the signal in relative fluorescence units (RFUs) was measured at 30 minutes on an Envision multi-label plate reader (Perkin Elmer). For Ub-AMC, fluorescence was monitored with filters corresponding to excitation at 340 nm and emission at 460 nm. For Ub-Rhodamine110, fluorescence was monitored with filters corresponding to excitation at 485 nm and emission at 531 nm. The signal to background (S/B) was calculated as (maximum signal−signal in absence of enzyme)/(signal in absence of enzyme).

[1] = tested on: UCHL3, USP2core, USP7, and USP8; experiment: Limit of detection for four isopeptidases, Ub-LUC vs Ub-AMC and Ub-Rhodamine110; assay type: biochemical; settings: the four enzymes
Experimental: The Ub-amino-luciferin substrate was compared to the Z-Arg-Leu-Arg-Gly-Gly (SEQ ID NO: 1)-amino-luciferin substrate (Promega DUB-Glo™ substrate) to determine the limit of detection of the activities of four different isopeptidases (UCHL3, USP2core, USP7, and USP8). For all enzymes, these two substrates were tested in parallel using the DUB-Glo™ assay system (Promega) according to the manufacturer's instructions. All enzymes were diluted into 50 mM HEPES, pH 7.5, 10 mM DTT, 0.1% Prionex (Sigma-Aldrich). […] The signal in relative luminescence units (RLUs) was measured at 30 minutes from reaction assembly on an Envision multi-label plate reader (Perkin Elmer). The signal to background ratio (S/B) was calculated as (maximum signal−signal in absence of enzyme)/(signal in absence of enzyme).
The Ub-amino-luciferin (Ub-LUC) substrate was compared to the Ub-AMC substrate (FIG. 3) and the Ub-Rhodamine110 (Ub-Rho) substrate (FIG. 4), to determine the limit of detection for the activities of four different isopeptidases (UCHL3, USP2core, USP7, and USP8). […] Reactions were assembled through the addition of 50 μl diluted isopeptidase to 50 μl of either Ub-AMC or Ub-Rhodamine110, and the signal in relative fluorescence units (RFUs) was measured at 30 minutes on an Envision multi-label plate reader (Perkin Elmer). […]

[2] = tested on: Otub2, JosD1, JosD2, AMSH, Ataxin3, Ataxin3-like, UCHL5, USP20, and USP14; experiment: Substrate comparison on panel of nine isopeptidases; assay type: biochemical
Experimental: For Ub-AMC and Ub-Rhodamine110, all enzymes were diluted into 50 mM Tris, pH 8.0, 5 mM DTT, 0.05% CHAPS to a final concentration of 10 nM. […] Either Ub-AMC or Ub-Rhodamine110 (final reaction concentration equal to 250 nM) were diluted into 50 mM Tris, pH 8.0, 5 mM DTT, 0.05% (w/v) CHAPS. […] For Ub-Rhodamine110, fluorescence was monitored with filters corresponding to excitation at 485 nm and emission at 531 nm.

SENP6 = SENP6 (Homo sapiens, UniProt Q9GZR1); settings: enzyme 200 pM; 30 minutes; FIG. 6
Experimental: (§1) The hSUMO2-amino-luciferin substrate was compared to the Z-Arg-Leu-Arg-Gly-Gly (SEQ ID NO: 1)-amino-luciferin substrate (Promega DUB-Glo™ substrate) to determine the specificity and limit of detection of the activities of six (6) different isopeptidases (USP34, USP7, USP8, SENP1, SENP2, and SENP6). For all enzymes, these two substrates were tested in parallel using the DUB-Glo™ assay system (Promega) according to the manufacturer's instructions. All enzymes were diluted into 50 mM HEPES, pH 7.5, 10 mM DTT, 0.1% Prionex® (Sigma-Aldrich). For testing Z-Arg-Leu-Arg-Gly-Gly (SEQ ID NO: 1)-amino-luciferin, final isopeptidase concentrations for all enzymes were equal to approximately 70 pM to 50 nM. For testing hSUMO2-amino-luciferin, final isopeptidase concentrations for all enzymes were equal to approximately 70 pM to 50 nM. […] The signal in relative luminescence units (RLUs) was measured at 30 minutes from reaction assembly on an EnVision™ multi-label plate reader (Perkin Elmer). The signal to background ratio (S/B) was calculated as (maximum signal/(signal in absence of enzyme) plus or minus the corrected standard deviation of triplicate measurements.

SENP2 = SENP2 (Homo sapiens, UniProt Q9HC62); settings: enzyme 200 pM; 30 minutes; FIG. 6
Experimental: as §1

SENP6, sequence (Q9GZR1 whole entry, species assumed): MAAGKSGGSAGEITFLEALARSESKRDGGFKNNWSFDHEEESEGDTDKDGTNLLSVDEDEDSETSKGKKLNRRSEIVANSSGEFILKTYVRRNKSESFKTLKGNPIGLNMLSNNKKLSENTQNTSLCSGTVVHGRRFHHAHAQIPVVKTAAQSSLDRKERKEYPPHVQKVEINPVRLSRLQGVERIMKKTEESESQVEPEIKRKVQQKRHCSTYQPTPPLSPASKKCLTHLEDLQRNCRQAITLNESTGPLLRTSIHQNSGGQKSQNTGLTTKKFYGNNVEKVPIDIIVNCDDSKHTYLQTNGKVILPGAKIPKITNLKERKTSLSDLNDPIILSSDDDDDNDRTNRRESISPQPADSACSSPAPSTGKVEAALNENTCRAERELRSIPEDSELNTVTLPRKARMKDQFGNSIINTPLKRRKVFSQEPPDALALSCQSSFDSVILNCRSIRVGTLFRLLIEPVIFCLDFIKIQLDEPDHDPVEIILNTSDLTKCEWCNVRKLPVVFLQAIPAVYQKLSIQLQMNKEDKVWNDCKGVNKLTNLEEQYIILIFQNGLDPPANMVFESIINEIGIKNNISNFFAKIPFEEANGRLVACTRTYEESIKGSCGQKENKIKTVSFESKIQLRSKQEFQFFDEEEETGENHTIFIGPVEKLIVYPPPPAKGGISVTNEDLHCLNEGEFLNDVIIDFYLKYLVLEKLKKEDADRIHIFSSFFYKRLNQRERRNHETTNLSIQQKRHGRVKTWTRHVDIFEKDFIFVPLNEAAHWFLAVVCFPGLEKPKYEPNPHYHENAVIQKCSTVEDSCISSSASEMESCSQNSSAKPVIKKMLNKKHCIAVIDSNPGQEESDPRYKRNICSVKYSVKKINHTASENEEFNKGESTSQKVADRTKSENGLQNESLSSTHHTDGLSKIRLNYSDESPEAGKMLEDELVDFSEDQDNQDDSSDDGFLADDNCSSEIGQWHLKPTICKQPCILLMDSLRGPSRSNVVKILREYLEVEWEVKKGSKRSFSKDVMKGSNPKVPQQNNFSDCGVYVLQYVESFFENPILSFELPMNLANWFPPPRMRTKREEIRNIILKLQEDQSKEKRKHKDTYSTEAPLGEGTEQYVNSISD
SENP2, sequence (Q9HC62 whole entry, species assumed): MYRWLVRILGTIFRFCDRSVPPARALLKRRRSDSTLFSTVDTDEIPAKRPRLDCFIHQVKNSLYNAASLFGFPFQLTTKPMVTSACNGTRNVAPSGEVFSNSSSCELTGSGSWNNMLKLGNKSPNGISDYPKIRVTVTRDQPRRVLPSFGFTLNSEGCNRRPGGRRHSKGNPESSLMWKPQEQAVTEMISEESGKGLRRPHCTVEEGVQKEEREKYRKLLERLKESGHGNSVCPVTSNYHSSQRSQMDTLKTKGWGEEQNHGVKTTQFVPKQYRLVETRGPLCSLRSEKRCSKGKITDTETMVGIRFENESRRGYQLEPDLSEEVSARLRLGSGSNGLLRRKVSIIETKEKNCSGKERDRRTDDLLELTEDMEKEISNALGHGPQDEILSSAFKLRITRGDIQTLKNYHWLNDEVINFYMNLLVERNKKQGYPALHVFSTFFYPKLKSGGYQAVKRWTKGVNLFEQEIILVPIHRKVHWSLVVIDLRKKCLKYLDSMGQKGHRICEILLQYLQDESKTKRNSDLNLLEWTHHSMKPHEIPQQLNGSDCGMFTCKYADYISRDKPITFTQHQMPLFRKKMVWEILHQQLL

| Substance | S/B increase relative to both Ub-AMC and Ub-Rhodamine110 (USP2core) [fold] | fold greater S/B compared to Ub-rhodamine110 [1] | limit of detection (S/B>3) increased over Ub-rhodamine110 [1] | S/B towards Ub-amino-luciferin, fold higher than Ub-AMC / Ub-Rhodamine110 ([2]; equivalent molar concentrations, seven of nine DUBs (exceptions JosD2 and UCHL5)) | fold greater S/B compared to Z-RLRGG-amino-luciferin (DUB-Glo reagent) ([2]; range over panel of 9 isopeptidases, 10 nM) | signal (RLU, S/B) (SENP6) | signal (RLU, S/B) (SENP2) |
| --- | --- | --- | --- | --- | --- | --- | --- |
| Ub(1-76)-aminoluciferin [Ub-LUC] | ~100 | more than 30 fold | more than 30 fold | 10-1000 fold | 10-1000 fold | – | – |
| Z-Arg-Leu-Arg-Gly-Gly (SEQ ID NO: 1)-amino-luciferin [DUB-glo ™] | – | – | – | – | – | gave signals | gave signals |
